# Measurements: ChEMBL document CHEMBL5465560, “Selectivity Literature for EUbOPEN Chemogenomic Library” (2024)
# Columns and labels:
# [1] = target: Mitogen-activated protein kinase 11 (Homo sapiens) (UniProt Q15759); experiment: Selectivity interaction (KinomeScan (DiscoverX)) EUB0000666a MAPK11; details: at 10 µM
# [2] = target: Cyclin-dependent kinase 13 (Homo sapiens, UniProt Q14004); experiment: Selectivity interaction (KinomeScan (DiscoverX)) EUB0000666a CDK13; details: at 10 µM
# [3] = target: Platelet-derived growth factor receptor beta (Homo sapiens, UniProt P09619); experiment: Selectivity interaction (KinomeScan (DiscoverX)) EUB0000229b PDGFRB; details: at 10 µM
# Chain of Platelet-derived growth factor receptor beta (P09619 whole entry): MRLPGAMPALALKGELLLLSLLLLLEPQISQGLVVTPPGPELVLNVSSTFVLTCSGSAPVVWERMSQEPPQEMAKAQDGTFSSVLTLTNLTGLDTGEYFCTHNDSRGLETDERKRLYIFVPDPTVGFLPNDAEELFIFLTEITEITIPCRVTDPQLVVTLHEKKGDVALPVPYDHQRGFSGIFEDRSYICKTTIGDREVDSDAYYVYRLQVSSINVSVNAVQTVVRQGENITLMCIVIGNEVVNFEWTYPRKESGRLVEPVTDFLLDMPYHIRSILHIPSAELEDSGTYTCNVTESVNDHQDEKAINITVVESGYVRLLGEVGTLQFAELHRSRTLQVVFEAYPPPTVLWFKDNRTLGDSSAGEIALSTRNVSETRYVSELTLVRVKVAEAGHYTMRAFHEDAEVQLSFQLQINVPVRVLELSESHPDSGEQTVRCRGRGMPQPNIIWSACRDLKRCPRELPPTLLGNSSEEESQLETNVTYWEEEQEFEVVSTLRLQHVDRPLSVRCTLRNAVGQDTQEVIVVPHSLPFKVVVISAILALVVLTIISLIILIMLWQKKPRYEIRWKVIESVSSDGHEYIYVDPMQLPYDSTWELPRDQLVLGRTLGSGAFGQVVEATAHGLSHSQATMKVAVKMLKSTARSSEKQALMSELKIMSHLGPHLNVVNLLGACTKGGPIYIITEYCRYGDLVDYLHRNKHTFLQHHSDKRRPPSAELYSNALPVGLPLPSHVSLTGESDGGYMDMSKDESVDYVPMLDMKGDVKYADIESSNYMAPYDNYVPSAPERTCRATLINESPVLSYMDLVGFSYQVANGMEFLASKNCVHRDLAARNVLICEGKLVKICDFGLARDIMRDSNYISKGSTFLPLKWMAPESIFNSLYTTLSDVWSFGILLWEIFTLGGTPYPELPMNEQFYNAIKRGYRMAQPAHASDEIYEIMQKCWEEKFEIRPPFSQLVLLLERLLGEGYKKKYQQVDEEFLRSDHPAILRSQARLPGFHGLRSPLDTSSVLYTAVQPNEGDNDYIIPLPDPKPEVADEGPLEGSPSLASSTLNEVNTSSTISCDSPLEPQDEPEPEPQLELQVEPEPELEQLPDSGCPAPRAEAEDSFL
# [4] = target: T1, Rhodopsin kinase GRK7 (Homo sapiens) (UniProt Q8WTQ7); experiment: Selectivity interaction (KinomeScan (DiscoverX)) EUB0000229b GRK7; details: at 10 µM
# T1 sequence (whole entry): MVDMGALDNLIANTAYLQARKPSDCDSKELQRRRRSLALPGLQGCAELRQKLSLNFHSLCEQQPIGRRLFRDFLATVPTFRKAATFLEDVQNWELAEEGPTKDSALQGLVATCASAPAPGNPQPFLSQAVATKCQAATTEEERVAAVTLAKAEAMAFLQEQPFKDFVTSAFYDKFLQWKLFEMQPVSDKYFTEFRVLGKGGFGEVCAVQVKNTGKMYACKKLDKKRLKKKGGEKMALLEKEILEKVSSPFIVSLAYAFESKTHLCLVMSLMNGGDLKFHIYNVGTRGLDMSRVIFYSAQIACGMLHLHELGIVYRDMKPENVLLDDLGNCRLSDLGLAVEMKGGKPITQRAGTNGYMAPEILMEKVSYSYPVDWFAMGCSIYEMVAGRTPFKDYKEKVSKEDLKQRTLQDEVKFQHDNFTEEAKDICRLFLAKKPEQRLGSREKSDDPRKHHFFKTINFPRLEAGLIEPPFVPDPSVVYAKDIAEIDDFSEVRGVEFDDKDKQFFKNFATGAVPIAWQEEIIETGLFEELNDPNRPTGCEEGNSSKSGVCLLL
# [5] = target: BDNF/NT-3 growth factors receptor (Homo sapiens) (UniProt Q16620); experiment: Selectivity interaction (SelectScreen Kinase Profiling (Thermo Fisher Scientific)) EUB0001558a NTRK2; details: at 1 µM
# [6] = target: Ribosomal protein S6 kinase alpha-3 (Homo sapiens, UniProt P51812); details: at 10 µM
# [7] = target: T2, NUAK family SNF1-like kinase 2 (Homo sapiens) (UniProt Q9H093); details: at 10 µM
# T2 sequence (whole entry): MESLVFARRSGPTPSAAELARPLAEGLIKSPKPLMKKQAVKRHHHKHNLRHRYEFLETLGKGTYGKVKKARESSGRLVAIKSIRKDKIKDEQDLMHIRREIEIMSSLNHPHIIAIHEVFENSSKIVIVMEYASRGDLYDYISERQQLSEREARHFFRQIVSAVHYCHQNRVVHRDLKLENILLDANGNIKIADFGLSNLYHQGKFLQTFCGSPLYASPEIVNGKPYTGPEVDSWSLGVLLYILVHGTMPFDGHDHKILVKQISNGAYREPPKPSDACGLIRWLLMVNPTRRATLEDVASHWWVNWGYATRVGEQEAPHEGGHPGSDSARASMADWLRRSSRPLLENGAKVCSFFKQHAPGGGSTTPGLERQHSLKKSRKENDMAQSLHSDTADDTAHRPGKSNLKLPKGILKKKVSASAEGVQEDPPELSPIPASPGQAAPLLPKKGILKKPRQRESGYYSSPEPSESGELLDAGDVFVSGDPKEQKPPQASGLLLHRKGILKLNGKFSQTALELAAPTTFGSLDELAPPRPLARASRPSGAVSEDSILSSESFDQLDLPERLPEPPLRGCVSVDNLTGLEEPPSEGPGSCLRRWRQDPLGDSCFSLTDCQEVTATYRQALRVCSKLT
# [8] = target: Serine/threonine-protein kinase B-raf (Homo sapiens) (UniProt P15056); details: at 10 µM
# Chain of Serine/threonine-protein kinase B-raf (Homo sapiens) (P15056 whole entry): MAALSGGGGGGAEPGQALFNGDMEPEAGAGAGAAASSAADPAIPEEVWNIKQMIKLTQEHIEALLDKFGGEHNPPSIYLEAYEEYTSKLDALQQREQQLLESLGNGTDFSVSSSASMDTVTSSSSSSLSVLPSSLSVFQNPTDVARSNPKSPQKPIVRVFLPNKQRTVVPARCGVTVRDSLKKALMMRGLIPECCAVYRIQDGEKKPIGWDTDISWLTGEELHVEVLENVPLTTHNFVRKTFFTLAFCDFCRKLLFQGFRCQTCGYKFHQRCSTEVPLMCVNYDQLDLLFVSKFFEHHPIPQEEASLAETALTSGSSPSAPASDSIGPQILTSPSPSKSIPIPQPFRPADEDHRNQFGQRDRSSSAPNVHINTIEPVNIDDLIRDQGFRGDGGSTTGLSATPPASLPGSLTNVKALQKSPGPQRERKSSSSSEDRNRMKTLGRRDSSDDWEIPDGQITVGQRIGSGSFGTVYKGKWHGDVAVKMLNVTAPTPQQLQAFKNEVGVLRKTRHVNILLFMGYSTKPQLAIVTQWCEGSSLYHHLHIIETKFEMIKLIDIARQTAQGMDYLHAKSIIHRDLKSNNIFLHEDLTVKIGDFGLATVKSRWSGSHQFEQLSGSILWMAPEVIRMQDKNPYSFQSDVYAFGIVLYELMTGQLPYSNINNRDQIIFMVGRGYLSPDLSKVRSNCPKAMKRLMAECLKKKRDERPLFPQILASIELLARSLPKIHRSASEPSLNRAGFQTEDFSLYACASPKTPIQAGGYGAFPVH
# [9] = target: Serine/threonine-protein kinase mTOR (Homo sapiens, UniProt P42345); experiment: Selectivity interaction (KinomeScan (DiscoverX)) EUB0000595a MTOR; details: at 10 µM
# [10] = target: Cyclin-dependent kinase 18 (Homo sapiens) (UniProt Q07002); experiment: Selectivity interaction (KinomeScan (DiscoverX)) EUB0000595a CDK18; details: at 10 µM
# [11] = target: Serine/threonine-protein kinase tousled-like 2 (Homo sapiens) (UniProt Q86UE8); experiment: Selectivity interaction (KinomeScan (DiscoverX)) EUB0000092b TLK2; details: at 10 µM
# [12] = target: 5'-AMP-activated protein kinase catalytic subunit alpha-2 (Homo sapiens) (UniProt P54646); experiment: Selectivity interaction (KinomeScan (DiscoverX)) EUB0000045b PRKAA2
# Chain of 5'-AMP-activated protein kinase catalytic subunit alpha-2 (Homo sapiens) (P54646 whole entry, looked up): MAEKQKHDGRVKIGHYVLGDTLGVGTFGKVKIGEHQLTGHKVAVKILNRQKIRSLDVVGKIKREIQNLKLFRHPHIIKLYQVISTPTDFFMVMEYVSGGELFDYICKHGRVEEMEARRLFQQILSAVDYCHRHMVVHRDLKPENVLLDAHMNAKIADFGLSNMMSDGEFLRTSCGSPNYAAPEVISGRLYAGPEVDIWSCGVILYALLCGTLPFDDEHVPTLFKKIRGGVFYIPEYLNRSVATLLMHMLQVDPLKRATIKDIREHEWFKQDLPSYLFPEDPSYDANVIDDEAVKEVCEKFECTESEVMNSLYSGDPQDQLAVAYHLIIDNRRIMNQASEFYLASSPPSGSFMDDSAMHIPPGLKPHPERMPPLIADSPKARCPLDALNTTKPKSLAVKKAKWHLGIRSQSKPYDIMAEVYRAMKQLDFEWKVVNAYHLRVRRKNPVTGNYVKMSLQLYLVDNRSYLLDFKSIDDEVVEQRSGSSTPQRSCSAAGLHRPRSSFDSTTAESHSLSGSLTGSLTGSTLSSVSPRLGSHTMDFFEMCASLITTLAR
# [13] = target: T3, Aurora kinase C (Homo sapiens) (UniProt Q9UQB9); experiment: Selectivity interaction (KinomeScan (DiscoverX)) EUB0000045b AURKC
# T3 sequence (whole entry): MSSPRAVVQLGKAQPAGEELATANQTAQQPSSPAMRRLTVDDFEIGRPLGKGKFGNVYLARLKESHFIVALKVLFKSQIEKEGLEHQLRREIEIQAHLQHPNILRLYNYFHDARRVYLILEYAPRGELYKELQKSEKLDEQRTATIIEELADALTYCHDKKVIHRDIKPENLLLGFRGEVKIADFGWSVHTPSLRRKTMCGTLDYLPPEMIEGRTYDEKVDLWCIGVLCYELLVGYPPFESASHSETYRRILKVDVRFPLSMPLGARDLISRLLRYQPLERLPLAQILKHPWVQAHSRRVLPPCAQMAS
# [14] = target: Ribosomal protein S6 kinase alpha-2 (Homo sapiens) (UniProt Q15349); details: at 10 µM
# Chain of Ribosomal protein S6 kinase alpha-2 (Homo sapiens) (Q15349 whole entry): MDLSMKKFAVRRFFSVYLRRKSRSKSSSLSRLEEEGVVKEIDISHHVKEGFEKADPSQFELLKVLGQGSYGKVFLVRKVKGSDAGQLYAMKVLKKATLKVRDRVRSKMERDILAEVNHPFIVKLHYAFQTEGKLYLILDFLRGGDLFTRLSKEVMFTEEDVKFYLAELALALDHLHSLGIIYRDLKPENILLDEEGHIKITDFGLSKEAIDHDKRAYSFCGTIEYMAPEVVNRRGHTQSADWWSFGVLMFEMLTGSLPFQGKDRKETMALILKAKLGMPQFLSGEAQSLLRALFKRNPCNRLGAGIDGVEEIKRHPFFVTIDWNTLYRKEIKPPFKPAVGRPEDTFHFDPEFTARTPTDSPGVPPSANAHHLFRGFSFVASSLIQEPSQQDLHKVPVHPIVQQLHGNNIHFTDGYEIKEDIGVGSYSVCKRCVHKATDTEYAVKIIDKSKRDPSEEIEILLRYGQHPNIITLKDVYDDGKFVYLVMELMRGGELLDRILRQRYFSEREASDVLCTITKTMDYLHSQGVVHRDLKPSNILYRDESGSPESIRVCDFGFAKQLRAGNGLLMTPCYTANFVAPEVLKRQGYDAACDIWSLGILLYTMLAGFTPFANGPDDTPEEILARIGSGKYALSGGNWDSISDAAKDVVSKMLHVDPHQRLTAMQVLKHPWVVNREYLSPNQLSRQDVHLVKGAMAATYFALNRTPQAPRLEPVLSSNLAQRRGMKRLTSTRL
# [15] = target: Serine/threonine-protein kinase WNK3 (Homo sapiens) (UniProt Q9BYP7); experiment: Selectivity interaction (KinomeScan (DiscoverX)) EUB0001619a WNK3; details: at 1 µM
# [16] = target: Non-receptor tyrosine-protein kinase TYK2 (Homo sapiens, UniProt P29597); experiment: Selectivity interaction (KinomeScan (DiscoverX)) EUB0000695a TYK2; details: at 100 nM
# hERG (KCNH2) = hERG (KCNH2) (Homo sapiens, UniProt Q12809); experiment: Selectivity interaction (Panel of kinases, GPCRs, ion channels and transporters (enzymatic assay)) EUB0000266bCl KCNH2
# Chain of hERG (KCNH2) (Q12809 whole entry): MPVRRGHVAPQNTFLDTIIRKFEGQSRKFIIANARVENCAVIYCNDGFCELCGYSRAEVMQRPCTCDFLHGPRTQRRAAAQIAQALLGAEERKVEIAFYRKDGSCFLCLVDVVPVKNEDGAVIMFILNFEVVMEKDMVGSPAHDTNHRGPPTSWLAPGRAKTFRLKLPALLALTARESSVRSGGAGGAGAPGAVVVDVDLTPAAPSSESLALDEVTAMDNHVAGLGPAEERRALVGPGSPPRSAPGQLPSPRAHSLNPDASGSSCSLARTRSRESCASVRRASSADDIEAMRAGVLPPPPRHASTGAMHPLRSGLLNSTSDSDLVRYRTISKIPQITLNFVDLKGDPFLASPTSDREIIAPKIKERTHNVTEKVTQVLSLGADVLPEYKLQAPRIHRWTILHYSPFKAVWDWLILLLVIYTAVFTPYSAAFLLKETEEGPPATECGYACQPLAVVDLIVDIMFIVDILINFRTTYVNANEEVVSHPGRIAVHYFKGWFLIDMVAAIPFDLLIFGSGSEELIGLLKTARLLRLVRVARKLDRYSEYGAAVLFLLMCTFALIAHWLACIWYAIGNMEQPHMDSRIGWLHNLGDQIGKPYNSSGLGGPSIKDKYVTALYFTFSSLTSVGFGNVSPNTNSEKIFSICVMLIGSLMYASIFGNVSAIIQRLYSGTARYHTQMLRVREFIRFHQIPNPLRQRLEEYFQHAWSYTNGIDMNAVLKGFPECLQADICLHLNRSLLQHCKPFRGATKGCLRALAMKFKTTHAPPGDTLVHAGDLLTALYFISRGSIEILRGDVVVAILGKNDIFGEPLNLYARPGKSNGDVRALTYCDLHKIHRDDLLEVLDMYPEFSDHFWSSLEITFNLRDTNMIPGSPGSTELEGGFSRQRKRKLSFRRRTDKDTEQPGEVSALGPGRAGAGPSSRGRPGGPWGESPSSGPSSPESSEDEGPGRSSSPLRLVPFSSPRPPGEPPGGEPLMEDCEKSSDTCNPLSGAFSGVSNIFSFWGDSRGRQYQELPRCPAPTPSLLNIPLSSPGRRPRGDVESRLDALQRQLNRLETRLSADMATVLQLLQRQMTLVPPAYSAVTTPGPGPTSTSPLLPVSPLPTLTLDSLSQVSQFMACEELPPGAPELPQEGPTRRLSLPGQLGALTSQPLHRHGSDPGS
# [17] = target: G protein-coupled receptor kinase 5 (Homo sapiens, UniProt P34947); experiment: Selectivity interaction (Kinase panel (Z-LYTE Assay)) EUB0001632a GRK5; details: at 10 µM
# Chain of Mitogen-activated protein kinase 11 (Homo sapiens) (Q15759 whole entry): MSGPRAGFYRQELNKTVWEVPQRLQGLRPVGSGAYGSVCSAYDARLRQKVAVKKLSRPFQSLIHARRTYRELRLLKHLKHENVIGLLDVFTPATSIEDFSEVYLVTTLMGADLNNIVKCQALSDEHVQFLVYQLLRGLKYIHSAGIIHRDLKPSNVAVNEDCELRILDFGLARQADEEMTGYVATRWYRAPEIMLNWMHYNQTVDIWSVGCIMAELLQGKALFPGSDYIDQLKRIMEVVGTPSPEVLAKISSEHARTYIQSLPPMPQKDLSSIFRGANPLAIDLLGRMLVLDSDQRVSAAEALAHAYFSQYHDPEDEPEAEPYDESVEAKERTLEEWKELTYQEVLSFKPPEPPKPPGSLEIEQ
smiles,measurement,setting,value
O=C(NOC[C@H](O)CO)c1ccc(F)c(F)c1Nc1ccc(I)cc1F,% of control,[1],100%
same,% of control,[2],84%
COc1cc(N(C)c2ccnc3ccc(C(F)(F)F)cc23)cc(OC)c1OC,% binding,[3],98%
same,% binding,[4],69%
CC(C)(O)[C@H](F)CN1Cc2cc(NC(=O)c3cnn4cccnc34)c(N3CCOCC3)cc2C1=O,% of inhibition,[5],86%
CCN(CC)CCCCNc1ncc2cc(-c3cc(OC)cc(OC)c3)c(NC(=O)NC(C)(C)C)nc2n1,% of control,[6],100%
same,% of control,[7],100%
same,% of control,[8],100%
COCC(=O)NC/C=C/c1ccc2ncnc(Nc3ccc(Oc4ccc(C)nc4)c(C)c3)c2c1 [CP-724714],% of control,[9],79%
same,% of control,[10],99%
CCC(=O)N1CCN(c2ccc(-n3c(=O)ccc4cnc5ccc(-c6cnc7ccccc7c6)cc5c43)cc2C(F)(F)F)CC1,% of control,[11],100%
C=CC(=O)Nc1cc(-n2c(=O)ccc3cnc4ccc(-c5ccc(NS(C)(=O)=O)cc5)cc4c32)ccc1C,% of control,[12]; at 1 µM,92%
same,% of control,[12]; at 10 µM,92%
same,% of control,[13]; at 1 µM,90%
same,% of control,[13]; at 10 µM,63%
Cc1cc([C@@H](C)Nc2ccccc2C(=O)O)c2nc(N3CCOCC3)cc(=O)n2c1 [AZD-6482],% of control,[14],97%
N#Cc1cccc(-c2c[nH]c3ncnc(N4CCOCC4)c23)c1,% of control,[15],100%
Cc1cc(F)c(C(=O)Nc2cccc(-c3nncn3C(C)C)n2)cc1-n1cnc(C2CC2)c1,% of control,[16],73%
CCn1c(-c2nc3cc(C(=O)N4CCCC(N)C4)ccc3n2C)cc2ccccc21 (stereo not given),XC50,hERG (KCNH2),6.31 µM
Cn1cc(-n2cnc3c(NCc4nc5cc(Cl)c(Cl)cc5[nH]4)nc(N4CCOCC4)nc32)cn1,% of control,[17],-0.027%
